This is an account of results in patent publication US11957759B1, “Rapidly accelerated fibrosarcoma (RAF) degrading compounds and associated methods of use” (Arvinas Operations, Inc., priority 2022, dated 2024).

In assay [1] the target is T1, B-RAF V600E (Homo sapiens, UniProt P15056, V600E).
T1 construct: expressed in transfected cells; host or cells: T-Rex 293 cells (Invitrogen #R71007)
The assay can be described thus: Target protein degradation, assay A: T-Rex 293 cells, HA-B-RAF_V600E, 96 well format. Type of assay: cell-based. The note with it: T-Rex 293 HA-B-RAF_V600E cells, 24 hours, Examples 1-82. As to the method:
A. T-Rex 293 Cells (96 well format)
T-Rex 293 cells were purchased from Invitrogen (#R71007), and stably transfected with a pcDNA4/TO_HA-B-RAF_V600E construct, using 400 ug Zeocin for selection. V600e cells are plated in ulbecco's Modified Eagle Medium (DMEM; Gibco #11965118) containing 10% fetal bovine serum (FBS; Gibco #16000044) and 1 ng/mL doxycycline (Selleckchem #4163) at a density of 5,000 cells/well in 50 μl on poly-D-lysine (PDL) coated, black clear bottom 96-well plates (Corning #354640) and incubated for 24 hours at 37° C. with 5% CO2. The following day 50 ul of tested compound was added at 2× concentration in DMEM with a final concentration ranging from 1 μM to 0.1 nM in 0.1% dimethylsulfoxide (DMSO), and incubated for 24 hours at 37° C. with 5% CO2. At the end of the experimental treatment, the media was flicked off and cells washed once with phosphate-buffered saline (PBS)++(PBS with CaCl and MgCl) and gently replacing with 200 μl PBS++ per well. The PBS++ was removed and 50 uL 4% paraformaldehyde (PFA; EMS #15710) in PBS++ was added, and incubate at room temperature for 15 minutes. Cells were washed once with PBS++ and 50 uL 0.1% Triton X-100 (Fisher #BP151-500) in PBS++ was added. Plate was incubate for 5 minutes at room temperature. Cells were was once with PBS++. Cells were blocked with 100 uL Licor blocking buffer (Licor #927-50000) for 1 hour at room temperature. Next, 50 uL of HA antibody (CST #3724) at 1:1000 in Licor blocking buffer was added, and the plate icubate overnight at 4° C. The plates were parafilmed to prevent evaporation. Plate was washed three times with 200 uL PBS++. Fifty microliters of HCS secondary antibody solution [1:1000 Hoechst (Invitrogen #H3570), 1:1000 phalloidin (Invitrogen #A22287) and 1:5000 Alexa fluor (Invitrogen #A11008)] was added and incubated for 1 hour. Plate was wash three times with 200 uL PBS++, and imaged on a high content reader (ImageXpress Micro XLS, Molecular Devices).
(§1) The concentration of an exemplary compound that leads to half maximal degradation (DC50) as well as the maximum degradation observed (Dmax, conventionally expressed as a percentage of control) is shown below in Table 2.

Assay [2] has as its target T2, B-RAF G466V (Homo sapiens, UniProt P15056, G466V).
T2 construct: expressed in transfected cells; host or cells: T-Rex 293 cells (Invitrogen #R71007)
Description: Target protein degradation, assay B: T-Rex 293 cells, HA-B-RAF_G466V, 96 well format. The class given is cell-based. The note with it: T-Rex 293 HA-B-RAF_G466V cells, 24 hours, Examples 1-82. The procedure:
B. T-Rex 293 Cells (96 Well Format)
T-Rex 293 cells were purchased from Invitrogen (#R71007), and stably transfected with a pcDNA4/TO_HA-B-RAF_G466V construct, using 400 ug Zeocin for selection. G466V cells are plated in ulbecco's Modified Eagle Medium (DMEM; Gibco #11965118) containing 10% fetal bovine serum (FBS; Gibco #16000044) and 0.75 ng/mL doxycycline (Selleckchem #4163) at a density of 5,000 cells/well in 50 μl on poly-D-lysine (PDL) coated, black clear bottom 96-well plates (Corning #354640) and incubated for 24 hours at 37° C. with 5% CO2. The following day 50 ul of tested compound was added at 2× concentration in DMEM with a final concentration ranging from 30 nM to 3 pM in 0.1% dimethylsulfoxide (DMSO), and incubated for 24 hours at 37° C. with 5% CO2. At the end of the experimental treatment, the media was flicked off and cells washed once with phosphate-buffered saline (PBS)++(PBS with CaCl and MgCl) and gently replacing with 200 μl PBS++ per well. The PBS++ was removed and 50 uL 4% paraformaldehyde (PFA; EMS #15710) in PBS++ was added, and incubate at room temperature for 15 minutes. Cells were washed once with PBS++ and 50 uL 0.1% Triton X-100 (Fisher #BP151-500) in PBS++ was added. Plate was incubate for 5 minutes at room temperature. Cells were was once with PBS++. Cells were blocked with 100 uL Licor blocking buffer (Licor #927-50000) for 1 hour at room temperature. Next, 50 uL of HA antibody (CST #3724) at 1:1000 in Licor blocking buffer was added, and the plate icubate overnight at 4° C. The plates were parafilmed to prevent evaporation. Plate was washed three times with 200 uL PBS++. Fifty microliters of HCS secondary antibody solution [1:1000 Hoechst (Invitrogen #H3570), 1:1000 phalloidin (Invitrogen #A22287) and 1:5000 Alexa fluor (Invitrogen #A11008)] was added and incubated for 1 hour. Plate was wash three times with 200 uL PBS++, and imaged on a high content reader (ImageXpress Micro XLS, Molecular Devices).
as §1

T1 sequence (P15056 whole entry V600E): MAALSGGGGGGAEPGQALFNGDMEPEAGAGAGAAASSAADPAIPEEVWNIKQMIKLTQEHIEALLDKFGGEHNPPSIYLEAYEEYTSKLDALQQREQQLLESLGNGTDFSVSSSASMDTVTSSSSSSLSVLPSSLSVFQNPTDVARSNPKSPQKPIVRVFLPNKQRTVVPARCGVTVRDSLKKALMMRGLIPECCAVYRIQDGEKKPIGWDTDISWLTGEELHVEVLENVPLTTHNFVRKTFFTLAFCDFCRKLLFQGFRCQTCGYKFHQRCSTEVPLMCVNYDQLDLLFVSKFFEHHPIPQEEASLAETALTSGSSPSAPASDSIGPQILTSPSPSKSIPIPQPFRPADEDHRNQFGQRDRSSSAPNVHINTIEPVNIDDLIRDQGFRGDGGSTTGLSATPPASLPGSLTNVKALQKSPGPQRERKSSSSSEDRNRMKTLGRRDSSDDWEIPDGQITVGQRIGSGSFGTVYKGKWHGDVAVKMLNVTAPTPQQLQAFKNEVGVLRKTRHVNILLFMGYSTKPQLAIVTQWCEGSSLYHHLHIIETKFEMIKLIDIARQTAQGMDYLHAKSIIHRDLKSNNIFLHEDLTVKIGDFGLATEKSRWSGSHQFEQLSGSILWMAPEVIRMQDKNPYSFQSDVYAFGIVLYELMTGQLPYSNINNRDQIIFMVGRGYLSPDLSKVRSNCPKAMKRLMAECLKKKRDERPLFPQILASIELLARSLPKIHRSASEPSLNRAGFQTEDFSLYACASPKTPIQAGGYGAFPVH
T2 sequence (P15056 whole entry G466V): as the sequence (P15056 whole entry V600E) above, with G466V, E600V counted along it

For orientation: DC50 means the concentration at which degradation of the target reaches its halfway point. Read a high DC50 as a less potent degrader. As to `N#Cc1c(NS(=O)(=O)N2CC[C@@H](F)C2)ccc(F)c1Oc1ccc2ncn(-c3ccc(N4CCN(CCN5CCN(c6ccc7c(c6)CN(C6CCC(=O)NC6=O)C7=O)CC5)CC4)cc3)c(=O)c2c1` (stereo partly drawn) [Example 10, (3R)-N-{2-cyano-3-[(3-(4-[4-(2-{4-[2-(2,6-dioxopiperidin-3-yl)-1-oxo-2,3-dihydro-1H-isoindol-5-yl]piperazin-1-yl}ethyl)piperazin-1-yl]phenyl}-4-oxo-3,4-dihydroquinazolin-6-yl)oxy]-4-fluorophenyl}-3-fluoropyrrolidine-1-sulfonamide], the DC50 is > 500 nM in assay [1] and > 30 nM in assay [2].

By Dmax is commonly meant the largest share of the target that was removed. Read a low Dmax as shallow degradation. In assay [1], `N#Cc1c(NS(=O)(=O)N2CC[C@@H](F)C2)ccc(F)c1Oc1ccc2ncn(-c3ccc(N4CCN(CC5CCN(c6ccc(NC7CCC(=O)NC7=O)cc6F)CC5)CC4)cc3)c(=O)c2c1` (stereo partly drawn) [Example 11, (3R)-N-(2-cyano-3-{[3-(4-{4-[(1-{4-[(2,6-dioxopiperidin-3-yl)amino]-2-fluorophenyl}piperidin-4-yl)methyl]piperazin-1-yl}phenyl)-4-oxo-3,4-dihydroquinazolin-6-yl]oxy}-4-fluorophenyl)-3-fluoropyrrolidine-1-sulfonamide] gave a DC50 of 5 to 50 nM and a Dmax of 35 to 70%. Further, the DC50 in assay [2] is > 30 nM.

On to `N#Cc1c(NS(=O)(=O)N2CC[C@@H](F)C2)ccc(F)c1Oc1ccc2ncn(-c3ccc(N4CCN(CC5CCN(c6ccc(NC7CCC(=O)NC7=O)cc6F)CC5)CC4)nc3)c(=O)c2c1` (stereo partly drawn) [Example 12, (3R)-N-(2-cyano-3-{[3-(6-{4-[(1-{4-[(2,6-dioxopiperidin-3-yl)amino]-2-fluorophenyl}piperidin-4-yl)methyl]piperazin-1-yl}pyridin-3-yl)-4-oxo-3,4-dihydroquinazolin-6-yl]oxy}-4-fluorophenyl)-3-fluoropyrrolidine-1-sulfonamide], for which, in assay [1], the DC50 was in the range of 5 to 50 nM and the Dmax was 35 to 70%. Besides, in assay [2], the DC50 was > 30 nM.

As to `N#Cc1c(NS(=O)(=O)N2CC[C@@H](F)C2)ccc(F)c1Oc1ccc2ncn(-c3ccc(N4CCN(CC5CCN(c6ccc(C7CCC(=O)NC7=O)cc6F)CC5)CC4)cc3)c(=O)c2c1` (stereo partly drawn) [Example 13, (3R)-N-{2-cyano-3-[(3-{4-[4-({1-[4-(2,6-dioxopiperidin-3-yl)-2-fluorophenyl]piperidin-4-yl}methyl)piperazin-1-yl]phenyl}-4-oxo-3,4-dihydroquinazolin-6-yl)oxy]-4-fluorophenyl}-3-fluoropyrrolidine-1-sulfonamide], in assay [1], the DC50 was 5 to 50 nM and the greatest degradation seen (Dmax) lay in the range of 35 to 70%. Besides, the half-maximal degradation concentration (DC50) in assay [2] is > 30 nM.

In assay [1], `N#Cc1c(NS(=O)(=O)N2CC[C@@H](F)C2)ccc(F)c1Oc1ccc2ncn(-c3ccc(N4CCN(CC5CCN(c6ccc(C7CCC(=O)NC7=O)cc6F)CC5)CC4)nc3)c(=O)c2c1` (stereo partly drawn) [Example 14, (3R)-N-{2-cyano-3-[(3-{6-[4-({1[4-(2,6-dioxopiperidin-3-yl)-2-fluorophenyl]piperidin-4-yl}methyl)piperazin-1-yl]pyridin-3-yl}-4-oxo-3,4-dihydroquinazolin-6-yl)oxy]-4-fluorophenyl}-3-fluoropyrrolidine-1-sulfonamide] showed a DC50 of 50 to 500 nM and a maximal degradation (Dmax) of 35 to 70%. The DC50 in assay [2] was > 30 nM.

On to `N#Cc1c(NS(=O)(=O)N2CC[C@@H](F)C2)ccc(F)c1Oc1ccc2ncn(-c3ccc(N4CCN(CC5CCN(c6ccc(F)c(C(=O)NC7CCC(=O)NC7=O)c6)CC5)CC4)cc3)c(=O)c2c1` (stereo partly drawn) [Example 15, 5-(4-{[4-(4-{6-[2-cyano-6-fluoro-3-({[(3R)-3-fluoropyrrolidin-1-yl]sulfonyl}amino)phenoxy]-4-oxo-3,4-dihydroquinazolin-3-yl}phenyl)piperazin-1-yl]methyl}piperidin-1-yl)-N-(2,6-dioxopiperidin-3-yl)-2-fluorobenzamide], for which the half-maximal degradation concentration (DC50) in assay [1] was > 500 nM; in assay [2], > 30 nM.

On to `N#Cc1c(NS(=O)(=O)N2CC[C@@H](F)C2)ccc(F)c1Oc1ccc2ncn(-c3cnc(N4CCN(c5ccc6c(c5)C(=O)N(C5CCC(=O)NC5=O)C6=O)CC4)nc3)c(=O)c2c1` (stereo partly drawn) [Example 31, (3R)-N-(2-cyano-3-{[3-(2-{4-[2-(2,6-dioxopiperidin-3-yl)-1,3-dioxo-2,3-dihydro-1H-isoindol-5-yl]piperazin-1-yl}pyrimidin-5-yl)-4-oxo-3,4-dihydroquinazolin-6-yl]oxy}-4-fluorophenyl)-3-fluoropyrrolidine-1-sulfonamide], for which the DC50 is > 500 nM in assay [1] and > 30 nM in assay [2].

In assay [1], `N#Cc1c(NS(=O)(=O)N2CC[C@@H](F)C2)ccc(F)c1Oc1ccc2ncn(-c3ccc(N4CCC(c5ccc6c(c5)C(=O)N(C5CCC(=O)NC5=O)C6)CC4)cc3)c(=O)c2c1` (stereo partly drawn) [Example 32, (3R)-N-(2-cyano-3-{[3-(4-{4-[2-(2,6-dioxopiperidin-3-yl)-3-oxo-2,3-dihydro-1H-isoindol-5-yl]piperidin-1-yl}phenyl)-4-oxo-3,4-dihydroquinazolin-6-yl]oxy}-4-fluorophenyl)-3-fluoropyrrolidine-1-sulfonamide] had a DC50 of 50 to 500 nM and a Dmax of 35 to 70%. Moreover, the DC50 in assay [2] was > 30 nM.

With `N#Cc1c(NS(=O)(=O)N2CC[C@@H](F)C2)ccc(F)c1Oc1ccc2ncn(-c3ccc(N4CCN(C(=O)CC5(O)CCN(c6ccc7c(c6)CN([C@H]6CCC(=O)NC6=O)C7=O)CC5)CC4)nc3)c(=O)c2c1` [Example 65, (3R)-N-(2-cyano-3-{[3-(6-{4-[2-(1-{2-[(3S)-2,6-dioxopiperidin-3-yl]-1-oxo-2,3-dihydro-1H-isoindol-5-yl}-4-hydroxypiperidin-4-yl)acetyl]piperazin-1-yl}pyridin-3-yl)-4-oxo-3,4-dihydroquinazolin-6-yl]oxy}-4-fluorophenyl)-3-fluoropyrrolidine-1-sulfonamide], the DC50 in assay [1] was > 500 nM; in assay [2], 10 to 30 nM. The Dmax in assay [2] fell in the range of 35 to 70%.

In assay [1], `N#Cc1c(NS(=O)(=O)N2CC[C@@H](F)C2)ccc(F)c1Oc1ccc2ncn(-c3ccc(N4CCN(C(=O)CC5(O)CCN(c6ccc(C7CCC(=O)NC7=O)cc6F)CC5)CC4)cc3)c(=O)c2c1` (stereo partly drawn) [Example 66, (3R)-N-{2-cyano-3-[(3-(4-[4-(2-{1-[4-(2,6-dioxopiperidin-3-yl)-2-fluorophenyl]-4-hydroxypiperidin-4-yl}acetyl)piperazin-1-yl]phenyl}-4-oxo-3,4-dihydroquinazolin-6-yl)oxy]-4-fluorophenyl}-3-fluoropyrrolidine-1-sulfonamide] came in with a DC50 of 50 to 500 nM and a Dmax of 35 to 70%. For the same compound, the DC50 in assay [2] was > 30 nM.
